Values joined by “and” are separate entries in the source; they are usually repeats but may differ in a detail not shown here. Equal values may be shown once. “Also recorded” adds a separate entry of the source.
Columns and labels:
Male Zucker fa/fa rats [1] = test: Day-night profile of glycemia and insulinemia, day 16 to day 17 of treatment; type: in vivo, rat
Procedure: The parameters monitored were morning blood glucose and plasma insulin levels. […] An OGTT was performed finally on day 21 to monitor blood glucose and plasma insulin kinetics to assess changes in glucose tolerance. Glibenclamide (DAB 1996; R011150/33372) was donated by Berlin-Chemie (Berlin, Germany). Male Zucker (fa/fa) rats of the body weight class of 300 g were purchased from Charles River (Sulzfeld, Germany). […] Thereafter, the non-diabetic Wistar rats were treated orally once daily with RP (5 mg/kg b.w.) or TP (21.61 mg/kg b.w.) and the diabetic Zucker rats were treated orally once daily with RP (1 mg/kg b.w.) or TP (21.61 mg/kg b.w.) for 21 days at 05.00 p.m. (before regular food intake in the dark phase). The controls were given 1% cellulose solution orally (5 ml/kg). […] The oral drug therapy was continued for one week. […] Blood glucose: Glucose levels were measured using the glucose oxidase procedure (Super G Glukosemeβgerät; Dr. Müller Gerätebau, Freital, Germany). Plasma insulin: Insulin concentrations were assayed by the antibody RIA method (LINCO Research, Inc. St. Charles, Mo., USA).

[2] = target: T1, PepT1 intestinal peptide transporter (Homo sapiens, UniProt P46059); test: Active transport through the intestinal mucosa
T1 sequence (P46059 1-708): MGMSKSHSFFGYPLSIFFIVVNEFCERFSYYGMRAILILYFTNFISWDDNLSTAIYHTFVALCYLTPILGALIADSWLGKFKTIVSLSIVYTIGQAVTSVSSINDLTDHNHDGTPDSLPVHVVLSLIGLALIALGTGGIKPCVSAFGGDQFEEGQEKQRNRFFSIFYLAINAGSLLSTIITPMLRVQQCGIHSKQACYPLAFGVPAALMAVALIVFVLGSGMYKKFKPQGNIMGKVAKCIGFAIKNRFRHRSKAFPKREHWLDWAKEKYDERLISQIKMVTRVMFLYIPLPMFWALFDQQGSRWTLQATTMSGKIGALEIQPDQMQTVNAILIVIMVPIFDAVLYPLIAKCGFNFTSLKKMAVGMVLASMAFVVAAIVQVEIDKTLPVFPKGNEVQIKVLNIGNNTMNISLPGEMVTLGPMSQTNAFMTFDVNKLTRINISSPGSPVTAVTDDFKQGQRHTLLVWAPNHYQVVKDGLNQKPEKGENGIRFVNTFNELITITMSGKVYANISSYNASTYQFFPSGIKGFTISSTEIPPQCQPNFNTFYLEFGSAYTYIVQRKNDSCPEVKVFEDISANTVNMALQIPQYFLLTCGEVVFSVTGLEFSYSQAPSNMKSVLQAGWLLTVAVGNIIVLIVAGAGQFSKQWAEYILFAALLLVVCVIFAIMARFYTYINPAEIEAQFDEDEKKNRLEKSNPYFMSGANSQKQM

Male Zucker fa/fa rats [3] = test: OGTT after 21 days treatment: blood glucose and plasma insulin; type: in vivo, rat
Procedure: The parameters monitored were morning blood glucose and plasma insulin levels. […] An OGTT was performed finally on day 21 to monitor blood glucose and plasma insulin kinetics to assess changes in glucose tolerance. Glibenclamide (DAB 1996; R011150/33372) was donated by Berlin-Chemie (Berlin, Germany). Male Zucker (fa/fa) rats of the body weight class of 300 g were purchased from Charles River (Sulzfeld, Germany). Repeated Dosing: 30 male non-diabetic Wistar and 30 male diabetic Zucker rats were randomized to RP (Reference Product: glibenclamide)-, TP- (jest Product: […] Thereafter, the non-diabetic Wistar rats were treated orally once daily with RP (5 mg/kg b.w.) or TP (21.61 mg/kg b.w.) and the diabetic Zucker rats were treated orally once daily with RP (1 mg/kg b.w.) or TP (21.61 mg/kg b.w.) for 21 days at 05.00 p.m. (before regular food intake in the dark phase). The controls were given 1% cellulose solution orally (5 ml/kg). […] The oral drug therapy was continued for one week. […] OGTT: A final OGTT was performed on day 21 with blood sampling from the tail vein. […] The latter were immediately centrifuged and the plasma fractions were stored at −20 ° C. for insulin analysis. Blood glucose: Glucose levels were measured using the glucose oxidase procedure (Super G Glukosemeβgerät; Dr. Müller Gerätebau, Freital, Germany). Plasma insulin: Insulin concentrations were assayed by the antibody RIA method (LINCO Research, Inc. St. Charles, Mo., USA).

isoleucyl thiazolidine hemifumarate [P32/98]
Mean blood glucose, day-night profile (Male Zucker fa/fa rats [1]; 02.00 p.m. next day, RP 1 mg/kg, TP 21.61 mg/kg orally once daily): 5.51 ± 0.19 mmol/L
Plasma insulin, day-night profile (Male Zucker fa/fa rats [1]; 02.00 p.m. the next day): 24.3 ± 3.7 ng/mL
Plasma insulin, day-night profile (Male Zucker fa/fa rats [1]; 05.00 a.m. (maximum)): 57.1 ± 8.6 ng/mL
Plasma insulin, day-night profile (Male Zucker fa/fa rats [1]; 05.00 p.m., RP 1 mg/kg, TP 21.61 mg/kg orally once daily): significantly lower than in the RP
Mean blood glucose, day-night profile (Male Zucker fa/fa rats [1]; 08.00 a.m., TP 21.61 mg/kg orally once daily): 5.64 ± 0.23 mmol/L
Plasma insulin, day-night profile (Male Zucker fa/fa rats [1]; 08.00 p.m.): 41.9 ± 8.5 ng/mL
Mean blood glucose, day-night profile (Male Zucker fa/fa rats [1]; 11.00 a.m., RP 1 mg/kg, TP 21.61 mg/kg orally once daily): 5.33 ± 0.14 mmol/L
Mean blood glucose, day-night profile (Male Zucker fa/fa rats [1]; 11.00 p.m., RP 1 mg/kg, TP 21.61 mg/kg orally once daily): 8.34 ± 0.47 mmol/L
Increase of glycemia from 05.00 p.m. to 11.00 p.m. (Male Zucker fa/fa rats [1]; day 16): about 3 mmol/l
Individual blood glucose values, range (Male Zucker fa/fa rats [1]; day 16, 05.00 p.m.): 4.34 to 6.07 mmol/L
Mean blood glucose, day-night profile (Male Zucker fa/fa rats [1]; day 16, 05.00 p.m. before drug application, RP 1 mg/kg, TP 21.61 mg/kg orally once daily): 5.25 ± 0.16 mmol/L
Blood glucose in the day-night profile (Male Zucker fa/fa rats [1]; given once daily): < 8.3 mmol/L
Economization (saving) of insulin compared to the control (Male Zucker fa/fa rats [1]; obese Zucker rat, subchronic treatment): 45%
Transport via the PepT1 intestinal peptide transporter [2]: actively transported
Glycemia at the last drug application (Male Zucker fa/fa rats [3]; 05.00 p.m., night before day 21): 5.75 ± 0.23 mmol/L
G-AUC in comparison to the placebo application (Male Zucker fa/fa rats [3]; day 21): did not increase
Mean blood glucose curve in the OGTT versus controls (Male Zucker fa/fa rats [3]; day 21): not different from that of the controls
Blood glucose during OGTT (Male Zucker fa/fa rats [3]; day 21, 50 min): 14.54 ± 0.65 mmol/L
Blood glucose during OGTT (Male Zucker fa/fa rats [3]; day 21, 120 min): 10.67 ± 0.62 mmol/L
Glycemia after overnight fasting (basal, before OGTT) (Male Zucker fa/fa rats [3]; day 21, morning (07.30 a. m.)): 4.88 ± 0.13 mmol/L
Fasting plasma insulin at the beginning of the OGTT (Male Zucker fa/fa rats [3]; day 21, overnight fasting, listed as TP): 9.3 ± 1.5 ng/mL and ~9 ng/mL
Plasma insulin after a glucose stimulus (Male Zucker fa/fa rats [3]; day 21 OGTT): remained mostly unchanged
Glucose area under the curve (G-AUC0-120 min) (Male Zucker fa/fa rats [3]; day 21 OGTT, CO-group 823±41): 895 ± 50 mmol·min/L
I-AUC0-120 min compared with the other groups (Male Zucker fa/fa rats [3]; day 21 OGTT, listed as TP): lower than in the CO- or RP-groups (NS); also recorded: slightly lower

From US20010051646A1, “Method for the improvement of islet signaling in diabetes mellitus and for its prevention” (priority 2000, published 2001)
